# According to US8802597B2, “Herbicidal pyrimidines” (E I du Pont de Nemours and Company, priority 2003, dated 2014):
# What was measured:
# Type in all cases: in vivo
# [1] = test system: Russian thistle (Salsola kali); experiment: Test D pre/postemergence; details: scale 0 to 100 (100 = complete control)
# Summary of the method: (§1)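 Pre: seeds sown, then treated. Post: plants at 1- to 4-leaf stage (2 to 18 cm) sprayed at the same time. Chemicals formulated in a non-phytotoxic solvent mixture including surfactant. After 15 to 25 days under controlled growth conditions, response rated visually from 0 (no effect) to 100 (complete control).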
# [2] = test system: catchweed bedstraw (galium; Galium aparine); experiment: Test D pre/postemergence; details: scale 0 to 100 (100 = complete control)
# Summary of the method: as §1
# [3] = test system: common chickweed (Stellaria media); experiment: Test D pre/postemergence; details: scale 0 to 100 (100 = complete control)
# Summary of the method: as §1
# kochia (Kochia scoparia) = experiment: Test D pre/postemergence; details: scale 0 to 100 (100 = complete control)
# Summary of the method: as §1
# [4] = test system: lambsquarters (Chenopodium album); experiment: Test D pre/postemergence; details: scale 0 to 100 (100 = complete control)
# Summary of the method: as §1
# [5] = test system: pigweed (Amaranthus retroflexus); experiment: Test D pre/postemergence; details: scale 0 to 100 (100 = complete control)
# Summary of the method: as §1
# [6] = test system: wheat (Triticum aestivum); experiment: Test D pre/postemergence; details: scale 0 to 100 (100 = complete control)
# Summary of the method: as §1
# [7] = test system: wild buckwheat (Polygonum convolvulus); experiment: Test D pre/postemergence; details: scale 0 to 100 (100 = complete control)
# Summary of the method: as §1
# [8] = test system: wild mustard (Sinapis arvensis); experiment: Test D pre/postemergence; details: scale 0 to 100 (100 = complete control)
# Summary of the method: as §1
# [9] = test system: broadleaf signalgrass (Brachiaria platyphylla); experiment: Test G pre/postemergence; details: Preemergence
# Summary of the method: (§2)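 Visual scores from 0 (no effect) to 100 (complete control) were assigned relative to untreated controls 12 to 21 days after treatment. Compounds, formulated in a non-phytotoxic solvent mixture with surfactant, were applied preemergence to planted seed or postemergence to plants at the 1- to 4-leaf stage (2 to 18 cm).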
# [10] = test system: common mallow (Malva sylvestris); experiment: Test G pre/postemergence; details: Preemergence
# Summary of the method: as §2
# [11] = test system: large crabgrass (Digitaria sanguinalis); experiment: Test G pre/postemergence; details: Preemergence
# Summary of the method: as §2
# [12] = test system: quackgrass (Elytrigia repens); experiment: Test G pre/postemergence; details: Preemergence
# Summary of the method: as §2
smiles,measurement,setting,value
"CCOC(=O)c1nc(C2CC2)nc(N)c1Cl [Compound 4, ethyl 6-amino-5-chloro-2-cyclopropyl-4-pyrimidinecarboxylate]","Plant response rating, Russian Thistle","[1]; Postemergence, 16 g ai/ha",80
same,"Plant response rating, Russian Thistle","[1]; Postemergence, 31 g ai/ha",90
same,"Plant response rating, Russian Thistle","[1]; Postemergence, 62 g ai/ha",100
same,"Plant response rating, Russian Thistle","[1]; Postemergence, 125 g ai/ha",100
same,"Plant response rating, Russian Thistle","[1]; Preemergence, 16 g ai/ha",90
same,"Plant response rating, Russian Thistle","[1]; Preemergence, 31 g ai/ha",100
same,"Plant response rating, Russian Thistle","[1]; Preemergence, 62 g ai/ha",100
same,"Plant response rating, Russian Thistle","[1]; Preemergence, 125 g ai/ha",100
same,"Plant response rating, Galium","[2]; Postemergence, 16 g ai/ha",100
same,"Plant response rating, Galium","[2]; Postemergence, 31 g ai/ha",100
same,"Plant response rating, Galium","[2]; Postemergence, 62 g ai/ha",100
same,"Plant response rating, Galium","[2]; Postemergence, 125 g ai/ha",100
same,"Plant response rating, Galium","[2]; Preemergence, 16 g ai/ha",90
same,"Plant response rating, Galium","[2]; Preemergence, 31 g ai/ha",100
same,"Plant response rating, Galium","[2]; Preemergence, 62 g ai/ha",100
same,"Plant response rating, Galium","[2]; Preemergence, 125 g ai/ha",100
same,"Plant response rating, Chickweed","[3]; Postemergence, 16 g ai/ha",65
same,"Plant response rating, Chickweed","[3]; Postemergence, 31 g ai/ha",100
same,"Plant response rating, Chickweed","[3]; Postemergence, 62 g ai/ha",100
same,"Plant response rating, Chickweed","[3]; Postemergence, 125 g ai/ha",100
same,"Plant response rating, Chickweed","[3]; Preemergence, 16 g ai/ha",65
same,"Plant response rating, Chickweed","[3]; Preemergence, 31 g ai/ha",70
same,"Plant response rating, Chickweed","[3]; Preemergence, 62 g ai/ha",85
same,"Plant response rating, Chickweed","[3]; Preemergence, 125 g ai/ha",100
same,"Plant response rating, Kochia","kochia (Kochia scoparia); Postemergence, 16 g ai/ha",85
same,"Plant response rating, Kochia","kochia (Kochia scoparia); Postemergence, 31 g ai/ha",100
same,"Plant response rating, Kochia","kochia (Kochia scoparia); Postemergence, 62 g ai/ha",100
same,"Plant response rating, Kochia","kochia (Kochia scoparia); Postemergence, 125 g ai/ha",100
same,"Plant response rating, Kochia","kochia (Kochia scoparia); Preemergence, 16 g ai/ha",85
same,"Plant response rating, Kochia","kochia (Kochia scoparia); Preemergence, 31 g ai/ha",100
same,"Plant response rating, Kochia","kochia (Kochia scoparia); Preemergence, 62 g ai/ha",100
same,"Plant response rating, Kochia","kochia (Kochia scoparia); Preemergence, 125 g ai/ha",100
same,"Plant response rating, Lambsquarters","[4]; Postemergence, 16 g ai/ha",95
same,"Plant response rating, Lambsquarters","[4]; Postemergence, 31 g ai/ha",100
same,"Plant response rating, Lambsquarters","[4]; Postemergence, 62 g ai/ha",100
same,"Plant response rating, Lambsquarters","[4]; Postemergence, 125 g ai/ha",100
same,"Plant response rating, Lambsquarters","[4]; Preemergence, 16 g ai/ha",70
same,"Plant response rating, Lambsquarters","[4]; Preemergence, 31 g ai/ha",80
same,"Plant response rating, Lambsquarters","[4]; Preemergence, 62 g ai/ha",100
same,"Plant response rating, Lambsquarters","[4]; Preemergence, 125 g ai/ha",100
same,"Plant response rating, Pigweed","[5]; Postemergence, 16 g ai/ha",85
same,"Plant response rating, Pigweed","[5]; Postemergence, 31 g ai/ha",100
same,"Plant response rating, Pigweed","[5]; Postemergence, 62 g ai/ha",100
same,"Plant response rating, Pigweed","[5]; Postemergence, 125 g ai/ha",100
same,"Plant response rating, Pigweed","[5]; Preemergence, 16 g ai/ha",70
same,"Plant response rating, Pigweed","[5]; Preemergence, 31 g ai/ha",90
same,"Plant response rating, Pigweed","[5]; Preemergence, 62 g ai/ha",100
same,"Plant response rating, Pigweed","[5]; Preemergence, 125 g ai/ha",100
same,"Plant response rating, Wheat","[6]; Postemergence, 16 g ai/ha",80
same,"Plant response rating, Wheat","[6]; Postemergence, 31 g ai/ha",85
same,"Plant response rating, Wheat","[6]; Postemergence, 62 g ai/ha",100
same,"Plant response rating, Wheat","[6]; Postemergence, 125 g ai/ha",100
same,"Plant response rating, Wheat","[6]; Preemergence, 31 g ai/ha",70
same,"Plant response rating, Wheat","[6]; Preemergence, 62 g ai/ha",80
same,"Plant response rating, Wheat","[6]; Preemergence, 125 g ai/ha",80
same,"Plant response rating, Buckwheat, Wild","[7]; Postemergence, 16 g ai/ha",80
same,"Plant response rating, Buckwheat, Wild","[7]; Postemergence, 31 g ai/ha",85
same,"Plant response rating, Buckwheat, Wild","[7]; Postemergence, 62 g ai/ha",100
same,"Plant response rating, Buckwheat, Wild","[7]; Postemergence, 125 g ai/ha",100
same,"Plant response rating, Buckwheat, Wild","[7]; Preemergence, 16 g ai/ha",60
same,"Plant response rating, Buckwheat, Wild","[7]; Preemergence, 31 g ai/ha",80
same,"Plant response rating, Buckwheat, Wild","[7]; Preemergence, 62 g ai/ha",100
same,"Plant response rating, Buckwheat, Wild","[7]; Preemergence, 125 g ai/ha",100
same,"Plant response rating, Mustard, Wild","[8]; Postemergence, 16 g ai/ha",65
same,"Plant response rating, Mustard, Wild","[8]; Postemergence, 31 g ai/ha",65
same,"Plant response rating, Mustard, Wild","[8]; Postemergence, 62 g ai/ha",75
same,"Plant response rating, Mustard, Wild","[8]; Postemergence, 125 g ai/ha",90
same,"Plant response rating, Mustard, Wild","[8]; Preemergence, 16 g ai/ha",65
same,"Plant response rating, Mustard, Wild","[8]; Preemergence, 31 g ai/ha",85
same,"Plant response rating, Mustard, Wild","[8]; Preemergence, 62 g ai/ha",85
same,"Plant response rating, Mustard, Wild","[8]; Preemergence, 125 g ai/ha",85
same,"Plant response rating, Signalgrass","[9]; 62 g ai/ha, scale 0-100",50
same,"Plant response rating, Signalgrass","[9]; 125 g ai/ha, scale 0-100",70
same,"Plant response rating, Signalgrass","[9]; 250 g ai/ha, scale 0-100",95
same,"Plant response rating, Signalgrass","[9]; 500 g ai/ha, scale 0 to 100",95
same,"Plant response rating, Mallow","[10]; 62 g ai/ha, scale 0-100",100
same,"Plant response rating, Mallow","[10]; 125 g ai/ha, scale 0-100",100
same,"Plant response rating, Mallow","[10]; 250 g ai/ha, scale 0-100",100
same,"Plant response rating, Mallow","[10]; 500 g ai/ha, scale 0 to 100",100
same,"Plant response rating, Crabgrass, Large","[11]; 62 g ai/ha, scale 0-100",60
same,"Plant response rating, Crabgrass, Large","[11]; 125 g ai/ha, scale 0-100",75
same,"Plant response rating, Crabgrass, Large","[11]; 250 g ai/ha, scale 0-100",100
same,"Plant response rating, Crabgrass, Large","[11]; 500 g ai/ha, scale 0 to 100",100
same,"Plant response rating, Quackgrass","[12]; 62 g ai/ha, scale 0-100",60
same,"Plant response rating, Quackgrass","[12]; 125 g ai/ha, scale 0-100",90
same,"Plant response rating, Quackgrass","[12]; 250 g ai/ha, scale 0-100",100
same,"Plant response rating, Quackgrass","[12]; 500 g ai/ha, scale 0 to 100",100
